Assay results from paper PMC8602401 (Scientific Reports, 2021).
pEC50: −log10 of the molar value. Read-outs that look alike come from different tables or passages of the source. *1 amine or outer side, *2 acyl side, *3 side chain or, on linkers, in order; H or OH if unused. Where a SMILES comes first, the peptide text is derived from it. Side-chain parts run from the residue outwards. [ ]: non-standard residue; d: D form. The star is where a group is joined. γGlu = O=C(O)[C@H](CCC(=O)[*:2])N[*:1]; αMeF = C[C@](N)(Cc1ccccc1)C(=O)O; αMeK = C[C@](N)(CCCCN)C(=O)O; Lauroyl = CCCCCCCCCCCC(=O)*; αMeS = C[C@](N)(CO)C(=O)O; AEEA = NCCOCCOCC(=O)O; Aib = CC(C)(N)C(=O)O

Columns and labels:
HFHF fed dogs = experiment: Dog model of obesity and insulin resistance (HFHF fed dogs), oral tablets; assay type: in vivo; settings: for plasma glucose excursions after oral glucose challenge: 10–40 min after glucose, P < 0.05, n = 7–11 per group
Procedure: For the single-dose study, dogs were randomized on baseline glucose levels to receive MEDI7219 1 mg or 10 mg or placebo tablets in the morning following an overnight fast (7–11 dogs per group). Ninety minutes after tablet administration, dogs received an oral glucose bolus (200 mg/mL at a 5 mL/kg volume calculated on body weight prior to HFHF feeding), and blood glucose (blood collected via peripheral vein) was measured with an AlphaTRAK glucometer system (Zoetis, Parsippany, NJ, USA) at –90, 0, 10, 20, 30, 40, 50, 60, 75, 90, 120, 180 and 240 min after glucose administration. Approximately 12 weeks later, dogs entered the multiple-dose study and received either MEDI7219 10 mg (n = 12) or placebo tablets (n = 6) once daily for 14 days. Dogs received two cups of HFHF canine diet per day, with feeding 3 h postdose during the 14-day study. Dogs had access to water ad libitum throughout the study. Food intake and body weight were monitored daily. On day 14, after overnight fasting, dogs received their final dose followed by an oral glucose and acetaminophen bolus 90 min after administration. Blood glucose was measured as described previously, and plasma acetaminophen levels were measured by LC/MS method at the same time points.

C57Bl/6 J mice = experiment: Acute food intake in C57Bl/6J mice; assay type: in vivo, mouse; settings: versus placebo
Procedure: Male C57Bl/6 J mice 8–10 weeks of age (Jackson Laboratories, Bar Harbor, ME, USA) were single-housed in the BioDAQ (Research Diets, New Brunswick, NJ, USA) food monitoring system with ad libitum access to standard chow and water. Mice were randomized into groups of 6–9 per group on baseline 24-h food intake. On the first study day, mice were fasted for 6 h and then received a single subcutaneous dose of test peptide or placebo (50 mM Tris–HCl, 150 mM mannitol, 0.02% polysorbate 80; pH 8.0). Food intake was monitored over the next 48 h.

[1] = Fasted-state simulated intestinal fluid/pancreatin assay; assay type: in vitro ADME; settings: FaSSIF with USP pancreatin; 2 h incubation in FaSSIF/USP pancreatin, pre-warmed, agitation; analytical RP-HPLC area under the curve; read-out: peptide remaining intact after incubation in FaSSIF/pancreatin
Procedure: Fresh FaSSIF and USP Pancreatin (FaSSIF/p; Sigma-Aldrich) was prepared according to Galia et al[55]. and used immediately. Peptides were dissolved in pre-warmed FaSSIF before addition of pre-warmed FaSSIF/pancreatin with agitation. Samples were analyzed by analytical RP-HPLC to determine remaining intact peptide by area under the curve.

human plasma protein = experiment: EScalate equilibrium shift assay, human plasma; assay type: in vitro ADME
Procedure: Binding of peptides to human plasma proteins was determined by the EScalate equilibrium shift assay (Sovicell, Leipzig, Germany), using five dilutions of plasma in phosphate buffered saline and an assumed binding protein concentration of 600 µM. Samples were incubated for 1 h at room temperature then centrifuged to remove the HSA-coated beads. Supernatant samples were analyzed using HPLC (3 µm Phenomenex Aeris Widepore XB-C18 stationary phase) coupled to an electrospray ionization quadrupole time-of-flight mass spectrometer in high resolution accurate mass mode (Agilent, Santa Clara, CA, USA). Unbound fractions were calculated from the concentration-dependent shift in binding equilibrium according to fu=1/1+P/KDPlasma , where P is the concentration of the binding protein in plasma and KDPlasma is the dissociation constant of the compound from plasma proteins in solution.

human GLP-1R = target: T1, human GLP-1R (Homo sapiens, UniProt P43220); experiment: cAMP accumulation assay in CHO cells stably expressing human GLP-1R; assay type: cell-based; settings: geometric mean (SEM); for pEC50: 30 min at room temperature, HTRF cAMP, n ≥ 3 independent experiments
T1 construct: expressed in transfected cells
Procedure: All reagents for cAMP assays were obtained from Sigma-Aldrich unless otherwise specified.
Cells were suspended in assay buffer and combined with serially diluted peptides at room temperature for 30 min. cAMP levels were measured using a cAMP dynamic 2 HTRF kit (Cisbio, Codolet, France), following the manufacturer’s two-step protocol, on an EnVision plate reader (PerkinElmer, Waltham, MA, USA). […] The transformed data were analyzed by four-parameter logistic fit to determine EC50 values using GraphPad Prism 6 (GraphPad Software, San Diego, CA, USA).

rat plasma protein = experiment: EScalate equilibrium shift assay, rat plasma; assay type: in vitro ADME; settings: EScalate equilibrium shift assay
[2] = EScalate equilibrium shift assay, rat plasma; assay type: in vitro ADME; settings: rat; EScalate equilibrium shift, five dilutions of plasma in PBS, 1 h at room temperature, HPLC-QTOF MS; read-out: Fraction unbound peptide (%), rat
db/db mice = experiment: Dose-response study in diabetic db/db mouse model; assay type: in vivo; settings: once-daily subcutaneous for 28 days, n = 9 per group
Procedure: Male 7-week-old db/db mice (Charles River, Bristol, UK) were group-housed with ad libitum access to standard chow and water. Mice were randomized to groups of nine mice per group on baseline body weight, HbA1C and 4-h fasting glucose (assessed in tail bleed samples using a Cobas c-111 analyzer [Roche Diagnostics, Indianapolis, IN, USA] and Nova StatStrip Xpress glucometer [DSI, St. Paul, MN, USA]). Insulin was measured in plasma from tail bleeds using a Meso Scale kit. Over 28 days, mice received daily subcutaneous doses of test peptides or placebo (50 mM Tris–HCl, 150 mM mannitol, 0.02% polysorbate 80; pH 8.0).

[3] = Pharmacokinetics of oral tablets in dogs; assay type: in vivo; settings: oral tablets 20 mg/dog, semaglutide: 300 mg SNAC, uncoated, MEDI7219: 100 mg NaCDC and 200 mg PG, pH 5.5 enteric, n = 9
[4] = EScalate equilibrium shift assay, dog plasma; assay type: in vitro ADME; settings: dog; EScalate equilibrium shift, five dilutions of plasma in PBS, 1 h at room temperature, HPLC-QTOF MS; read-out: Fraction unbound peptide (%), dog
dog plasma protein = experiment: EScalate equilibrium shift assay, dog plasma; assay type: in vitro ADME; settings: EScalate equilibrium shift assay

T1 sequence (P43220 24-463): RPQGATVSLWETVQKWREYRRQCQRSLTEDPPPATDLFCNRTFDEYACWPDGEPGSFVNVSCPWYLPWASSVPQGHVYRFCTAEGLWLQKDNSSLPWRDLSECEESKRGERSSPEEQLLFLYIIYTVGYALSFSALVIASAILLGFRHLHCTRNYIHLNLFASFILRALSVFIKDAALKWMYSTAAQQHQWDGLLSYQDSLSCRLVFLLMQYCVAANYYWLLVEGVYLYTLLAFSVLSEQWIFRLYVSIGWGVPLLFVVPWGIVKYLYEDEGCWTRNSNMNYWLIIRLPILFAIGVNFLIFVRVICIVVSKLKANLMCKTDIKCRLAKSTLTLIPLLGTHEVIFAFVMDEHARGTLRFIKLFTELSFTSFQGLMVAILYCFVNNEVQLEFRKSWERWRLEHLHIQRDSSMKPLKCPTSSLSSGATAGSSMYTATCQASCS

CCCCCCCCCCCC(=O)N[C@@H](CCC(=O)NCCOCCOCC(=O)NCCOCCOCC(=O)NCCCC[C@H](NC(=O)[C@H](C)NC(=O)[C@@H](NC(=O)[C@](C)(Cc1ccccc1)NC(=O)[C@H](CCC(=O)O)NC(=O)[C@](C)(CCCCN)NC(=O)[C@H](C)NC(=O)[C@H](C)NC(=O)[C@H](CCC(=O)O)NC(=O)CNC(=O)[C@H](CCC(=O)O)NC(=O)[C@H](CC(C)C)NC(=O)[C@H](CCCCNC(=O)COCCOCCNC(=O)COCCOCCNC(=O)CC[C@H](NC(=O)CCCCCCCCCCC)C(=O)O)NC(=O)[C@H](CO)NC(=O)[C@](C)(CO)NC(=O)[C@@H](NC(=O)[C@H](CC(=O)O)NC(=O)[C@H](CO)NC(=O)[C@@H](NC(=O)[C@](C)(Cc1ccccc1)NC(=O)[C@H](CO)NC(=O)CNC(=O)[C@H](CCC(=O)O)NC(=O)C(C)(C)NC(=O)[C@@H](N)Cc1c[nH]cn1)[C@@H](C)O)C(C)C)[C@@H](C)CC)C(=O)N[C@H](C(=O)N[C@H](C(=O)N[C@@H](CCC(=O)O)C(=O)NCC(=O)NCC(N)=O)C(C)C)C(C)C)C(=O)O [MEDI7219] (H-H[Aib]EGS[αMeF]TSDV[αMeS]SK([AEEA-AEEA-γGlu-Lauroyl])LEGEAA[αMeK]E[αMeF]IAK([AEEA-AEEA-γGlu-Lauroyl])VVEGG-NH2)
body weight change over 14 days (HFHF fed dogs; once-daily 10 mg oral tablets, 14 days, placebo + 0.71%, P < 0.05, n = 12): –4.86% | glucose excursions in oral glucose tolerance test, day 14 (HFHF fed dogs; once-daily 10 mg oral tablets, fasted, postdose day 14, versus placebo, P < 0.01): significant improvements in glucose excursions | peak plasma acetaminophen concentration (gastric emptying), day 14 (HFHF fed dogs; once-daily 10 mg oral tablets, oral acetaminophen with glucose bolus, versus placebo): significantly reduced at 20–40 min (P < 0.05) and delayed | cumulative food intake over 14 days (HFHF fed dogs; once-daily 10 mg oral tablets, versus placebo, P < 0.05): significantly decreased cumulative food intake | plasma glucose excursions after oral glucose challenge (HFHF fed dogs; single dose 1 mg oral tablet, versus placebo): statistically significantly improved | plasma glucose excursions after oral glucose challenge (HFHF fed dogs; single dose 10 mg oral tablet, versus placebo): statistically significantly improved | 24-hour food intake, decrease (↓) in Fig. 3a (C57Bl/6 J mice; subcutaneous 0.3 nmol/kg): 12.6% | 24-hour food intake, decrease (↓) in Fig. 3a (C57Bl/6 J mice; subcutaneous 1 nmol/kg): 18.0% | 24-hour food intake, decrease (↓) in Fig. 3a (C57Bl/6 J mice; subcutaneous 3 nmol/kg): 39.4% | remaining at 2 h [1]: > 60% | peptide bound to plasma proteins, human (human plasma protein; EScalate equilibrium shift assay): over 97% | Fraction unbound peptide (%), human (human plasma protein; EScalate equilibrium shift, HSA-coated beads, five dilutions of plasma in PBS, 1 h at room temperature, HPLC-QTOF MS): 1.75% | CHO-hGLP-1R cAMP 0.1% BSA Effect at max. concentration (human GLP-1R; 0.1% BSA, % activation, 80 nM native GLP-1 defines maximum effect): 101.7 (0.5) % | pEC50 (human GLP-1R; 4.4% HSA, read-out: CHO-hGLP-1R cAMP 4.4% HSA EC50): 9.40 | CHO-hGLP-1R cAMP 4.4% HSA Effect at max. concentration (human GLP-1R; 4.4% HSA, % activation, 80 nM native GLP-1 defines maximum effect): 94.3 (1.8) % | pEC50 (human GLP-1R; CHO-hGLP-1R cAMP 0.1% BSA EC50, 0.1% BSA): 11.47 | peptide bound to plasma proteins, rat (rat plasma protein): over 97% | fraction unbound at 1 h [2]: 0.006 | HbA1C levels (db/db mice; P < 0.001 versus placebo for doses 1–30 nmol/kg): dose-dependently reduced HbA1C levels | blood glucose levels over 28 days (db/db mice; significantly lower than placebo at 3–30 nmol/kg (P < 0.001)): dose-dependently reduced glucose levels | AUC0-inf ([3]; arithmetic mean (% CV)): 13,500 (54.2) ng·h/mL | CL/F (oral clearance) ([3]; arithmetic mean (% CV)): 1,880 (52.1) mL/h | Cmax ([3]; arithmetic mean (% CV)): 1,450 (63.2) ng/mL | F (bioavailability, systemic fraction) ([3]; arithmetic mean (% CV)): 5.92 (54.2) % | Tmax ([3]; median (min–max)): 1.5 (1.0–4.5) hours | t½ ([3]; plasma, LC/MS, arithmetic mean (% CV)): 9.8 (13.2) hours | fraction unbound at 1 h [4]: 0.0176 | peptide bound to plasma proteins, dog (dog plasma protein): over 97%
